In article PMC12579162, “Synthesized Depside Molecules Suppress the Progression of Colorectal Cancer by Binding VDAC1/PHB/MMP9 Being at the Crossroads of Stemness, Motility, Apoptosis, and Metabolism” (MedComm, 2025):

Legend:
[1] = test system: CRC cells (CaCo2, DLD1, HCT116, HT29, and SW620); test: Spheroid formation assay, CRC cell lines; type: cell-based, human; settings: 2.5 and 5 µM, 10–14 days
Description: Monolayer cells were separated into single‐cell suspensions at around 70% confluence using a solution of trypsin. After that, the cells were added to N2‐supplemented DMEM/F12 that contained human basal fibroblast growth factor and human recombinant epidermal growth factor. Cells seeded at a density of 5 × 10^3 cells/well in ultra‐low attachment 24‐well plates (Corning Inc., Corning, NY, USA). After 10–14 days of culture, spheres were quantitated by inverted phase contrast microscopy. The relative sphere formation ability was calculated through the IMT iSolution software (IMT iSolution Inc., Northampton, NJ, USA) measuring the pixel intensity of the sphere area randomly in each plate.

CT26–iRFP cells = test: CT26–iRFP derived tumor growth model; type: in vivo, BALB/C mice; settings: 5, 10, or 20 mg/kg intraperitoneally every other day
Description: The antitumor efficacy of VDAC1/PHB/MMP‐binding compound was evaluated using a xenograft model. Six‐week‐old male BALB/C mice were obtained from OrientBio. 1 × 10⁶ CT26 cells were subcutaneously implanted to each mouse. After 1 week inoculation, mice were treated with intraperitoneal injections of either vehicle (DMSO/PBS) or SB4 at a dose of 5, 10 and 20 mg/kg, administered every other day. Tumor volumes and body weight was measured every 2 days. Bioimaging of near‐infrared fluorescence was obtained using a FOBI system (Cellgentek, Osong, Korea) for three time point. After euthanizing the mice, tumor tissues were successfully collected, and the tumor weight was measured for each sample. According to the Guiding Principles in the Care and Use of Animals (DHEW publication, NIH 80–23), the in vivo experiments were performed with the approval of the Sunchon National University Research Institutional Animal Care and Use Committee (SCNU IACUC‐2024‐17).

| Structure (SMILES) | spheroid formation [1] | mouse body weight (CT26–iRFP cells) | tumor volume and weight (CT26–iRFP cells; versus control) |
| --- | --- | --- | --- |
| COCCCOc1c(C)c(OC(=O)c2c(C)cc(OC)c(C)c2OC)cc(C)c1C(=O)OC [SB5, 4-(Methoxycarbonyl)-3-(3-methoxypropoxy)-2,5-dimethylphenyl 2,4-dimethoxy-3,6-dimethylbenzoate] | suppressed spheroid formation |  |  |
| COCCOc1c(C)c(OC(=O)c2c(C)cc(OC)c(C)c2OC)cc(C)c1C(=O)OC [SB4, 4-(Methoxycarbonyl)-3-(2-methoxyethoxy)-2,5-dimethylphenyl 2,4-dimethoxy-3,6-dimethylbenzoate] | suppressed spheroid formation | did not influence mouse body weight | significantly reduced both tumor volume and weight in a dose‐dependent manner |
